This is an account of results in ChEMBL document CHEMBL5465560, “Selectivity Literature for EUbOPEN Chemogenomic Library” (2024).

Experiment [1] deals with Fibroblast growth factor receptor 3 (Homo sapiens), P22607 [G697C]. As to the kind of experiment: (§1) Selectivity interaction (LanthaScreen Eu Kinase Binding Assay) EUB0001632a FGFR3. The conditions noted are these: at 10 µM.
In experiment [2] the test system is Fibroblast growth factor receptor 3 (Homo sapiens), P22607 [K650M]. The experiment is described as §1. The conditions noted are these: at 10 µM.
Experiment [3] addresses Macrophage-stimulating protein receptor (Homo sapiens, UniProt Q04912). Description: Selectivity interaction (KinomeScan (DiscoverX)) EUB0000595a MST1R. The conditions noted are these: at 10 µM.
Experiment [4] concerns the target Cyclin-dependent kinase 8 (Homo sapiens, UniProt P49336). Description: Selectivity interaction (KinomeScan (DiscoverX)) EUB0000607a CDK8. The conditions noted are these: at 10 µM.
Experiment [5] has as its target Mitogen-activated protein kinase kinase kinase kinase 4 (Homo sapiens, UniProt O95819). Description: Selectivity interaction (SelectScreen profiling (Invitrogen)) EUB0000607a MAP4K4. The conditions noted are these: at 2 µM.
Experiment [6] concerns the target T1, cAMP-dependent protein kinase catalytic subunit PRKX (Homo sapiens) (UniProt P51817).
T1 sequence (whole entry): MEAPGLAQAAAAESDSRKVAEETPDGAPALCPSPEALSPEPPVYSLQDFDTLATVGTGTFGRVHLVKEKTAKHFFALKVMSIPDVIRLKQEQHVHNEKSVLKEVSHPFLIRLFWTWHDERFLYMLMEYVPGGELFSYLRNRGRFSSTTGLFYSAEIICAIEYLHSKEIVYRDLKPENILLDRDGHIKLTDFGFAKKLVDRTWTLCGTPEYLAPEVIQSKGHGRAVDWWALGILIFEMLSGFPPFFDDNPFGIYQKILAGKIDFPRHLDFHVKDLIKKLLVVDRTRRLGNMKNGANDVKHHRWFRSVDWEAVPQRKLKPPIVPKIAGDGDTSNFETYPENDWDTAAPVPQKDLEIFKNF
As to the kind of experiment: Selectivity interaction (KinomeScan (DiscoverX)) EUB0000607a PRKX. The conditions noted are these: at 10 µM.

Experiment [7] has as its target T2, Cyclin-dependent kinase-like 5 (Homo sapiens) (UniProt O76039).
T2 sequence (whole entry): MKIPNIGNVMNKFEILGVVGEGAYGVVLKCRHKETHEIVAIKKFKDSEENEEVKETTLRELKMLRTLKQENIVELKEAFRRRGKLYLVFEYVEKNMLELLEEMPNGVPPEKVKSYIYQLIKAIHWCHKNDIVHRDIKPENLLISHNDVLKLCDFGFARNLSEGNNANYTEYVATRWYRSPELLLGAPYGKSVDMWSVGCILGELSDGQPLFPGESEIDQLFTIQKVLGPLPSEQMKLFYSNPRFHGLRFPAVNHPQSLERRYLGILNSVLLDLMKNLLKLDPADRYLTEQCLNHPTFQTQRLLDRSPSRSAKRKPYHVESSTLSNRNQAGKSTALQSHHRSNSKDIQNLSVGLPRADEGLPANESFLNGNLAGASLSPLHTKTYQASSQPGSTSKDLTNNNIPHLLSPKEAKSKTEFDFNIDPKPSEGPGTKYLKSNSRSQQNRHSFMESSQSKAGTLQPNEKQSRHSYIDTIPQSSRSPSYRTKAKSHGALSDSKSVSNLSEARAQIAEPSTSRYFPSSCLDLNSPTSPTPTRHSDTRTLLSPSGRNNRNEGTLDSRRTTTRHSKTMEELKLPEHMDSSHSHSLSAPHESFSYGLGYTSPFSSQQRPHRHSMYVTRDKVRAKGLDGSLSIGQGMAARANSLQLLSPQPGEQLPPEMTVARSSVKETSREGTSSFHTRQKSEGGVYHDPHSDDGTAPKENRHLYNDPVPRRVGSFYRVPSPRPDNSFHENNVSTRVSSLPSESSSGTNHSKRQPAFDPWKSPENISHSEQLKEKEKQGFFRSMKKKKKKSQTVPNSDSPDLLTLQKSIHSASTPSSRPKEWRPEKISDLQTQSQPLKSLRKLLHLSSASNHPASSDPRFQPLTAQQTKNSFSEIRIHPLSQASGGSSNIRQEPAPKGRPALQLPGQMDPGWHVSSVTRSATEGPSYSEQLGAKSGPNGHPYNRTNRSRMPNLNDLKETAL
Conditions: at 10 µM.

For experiment [8], the target named is Myosin light chain kinase, smooth muscle (Homo sapiens, UniProt Q15746). Description: Selectivity interaction (KinomeScan (DiscoverX)) EUB0000045b MYLK. Conditions: at 1 µM.
Experiment [9] addresses T3, Tyrosine-protein kinase JAK3 (Homo sapiens) (UniProt P52333).
T3 sequence (whole entry): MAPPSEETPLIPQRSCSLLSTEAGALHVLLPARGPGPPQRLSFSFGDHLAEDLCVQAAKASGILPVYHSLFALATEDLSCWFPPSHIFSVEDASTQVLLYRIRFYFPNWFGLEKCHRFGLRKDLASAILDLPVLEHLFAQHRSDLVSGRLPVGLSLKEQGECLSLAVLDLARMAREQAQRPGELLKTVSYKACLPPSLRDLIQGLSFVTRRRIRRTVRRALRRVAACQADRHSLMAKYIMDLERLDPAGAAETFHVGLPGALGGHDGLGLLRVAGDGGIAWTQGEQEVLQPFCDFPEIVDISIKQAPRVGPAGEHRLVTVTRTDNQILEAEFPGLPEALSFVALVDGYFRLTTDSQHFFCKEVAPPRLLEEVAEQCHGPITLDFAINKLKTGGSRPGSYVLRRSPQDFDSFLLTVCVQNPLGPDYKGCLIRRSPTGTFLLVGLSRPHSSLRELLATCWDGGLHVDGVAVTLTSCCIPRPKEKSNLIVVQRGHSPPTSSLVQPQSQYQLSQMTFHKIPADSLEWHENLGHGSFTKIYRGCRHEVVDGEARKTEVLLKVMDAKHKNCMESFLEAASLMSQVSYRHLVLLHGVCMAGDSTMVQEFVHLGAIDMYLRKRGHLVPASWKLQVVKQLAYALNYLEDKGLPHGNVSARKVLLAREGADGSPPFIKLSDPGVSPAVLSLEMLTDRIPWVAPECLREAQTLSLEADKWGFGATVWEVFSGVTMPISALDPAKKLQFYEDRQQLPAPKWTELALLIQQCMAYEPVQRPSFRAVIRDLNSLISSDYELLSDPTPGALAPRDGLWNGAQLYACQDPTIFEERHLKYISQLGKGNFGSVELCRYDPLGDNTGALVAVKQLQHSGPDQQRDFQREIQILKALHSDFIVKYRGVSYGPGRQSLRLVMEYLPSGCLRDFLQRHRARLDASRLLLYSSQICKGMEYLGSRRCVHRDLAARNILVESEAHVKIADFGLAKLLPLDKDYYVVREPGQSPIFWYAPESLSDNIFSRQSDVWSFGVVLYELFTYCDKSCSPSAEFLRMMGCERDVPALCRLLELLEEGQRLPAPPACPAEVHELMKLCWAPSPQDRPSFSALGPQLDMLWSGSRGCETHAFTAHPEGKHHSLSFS
As to the kind of experiment: Selectivity interaction (Upstate Kinase Profiler service (Millipore)) EUB0000056c JAK3. The conditions noted are these: at 1 µM.

A further experiment deals with Activated CDC42 kinase 1 (Homo sapiens, UniProt Q07912). Description: Selectivity interaction (KinomeScan (DiscoverX)) EUB0000229b TNK2. The conditions noted are these: at 10 µM.
Sequence of Activated CDC42 kinase 1 (Q07912 whole entry, looked up): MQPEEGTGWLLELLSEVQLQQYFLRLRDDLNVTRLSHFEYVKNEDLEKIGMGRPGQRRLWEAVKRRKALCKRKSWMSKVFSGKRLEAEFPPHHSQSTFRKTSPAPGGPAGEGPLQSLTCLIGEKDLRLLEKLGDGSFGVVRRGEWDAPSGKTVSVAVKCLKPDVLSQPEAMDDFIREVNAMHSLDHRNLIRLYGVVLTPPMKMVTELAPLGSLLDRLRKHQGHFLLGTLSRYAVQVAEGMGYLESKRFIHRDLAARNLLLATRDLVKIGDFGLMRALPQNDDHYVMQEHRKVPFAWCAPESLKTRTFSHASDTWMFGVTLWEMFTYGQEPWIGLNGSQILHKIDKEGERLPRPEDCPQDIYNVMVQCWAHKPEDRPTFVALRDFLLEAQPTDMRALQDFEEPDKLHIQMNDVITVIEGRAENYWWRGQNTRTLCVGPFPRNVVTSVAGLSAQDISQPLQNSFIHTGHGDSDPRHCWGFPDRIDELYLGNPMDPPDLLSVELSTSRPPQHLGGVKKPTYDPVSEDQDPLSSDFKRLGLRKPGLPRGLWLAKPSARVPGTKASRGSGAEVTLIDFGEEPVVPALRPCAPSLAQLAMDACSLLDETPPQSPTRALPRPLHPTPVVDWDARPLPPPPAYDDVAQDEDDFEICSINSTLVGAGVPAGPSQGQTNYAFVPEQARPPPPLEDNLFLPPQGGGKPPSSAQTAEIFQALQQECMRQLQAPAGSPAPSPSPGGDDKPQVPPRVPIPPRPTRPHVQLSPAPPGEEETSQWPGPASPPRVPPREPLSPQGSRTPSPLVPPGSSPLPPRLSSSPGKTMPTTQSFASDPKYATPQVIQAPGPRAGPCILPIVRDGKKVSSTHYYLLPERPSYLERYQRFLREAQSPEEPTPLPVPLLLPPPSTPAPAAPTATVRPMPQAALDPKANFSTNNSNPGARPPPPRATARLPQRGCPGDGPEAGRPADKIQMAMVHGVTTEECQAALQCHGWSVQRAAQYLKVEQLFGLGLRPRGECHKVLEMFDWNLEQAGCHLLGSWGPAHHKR

Sequence of Mitogen-activated protein kinase kinase kinase kinase 4 (O95819 2-1239 limits assumed): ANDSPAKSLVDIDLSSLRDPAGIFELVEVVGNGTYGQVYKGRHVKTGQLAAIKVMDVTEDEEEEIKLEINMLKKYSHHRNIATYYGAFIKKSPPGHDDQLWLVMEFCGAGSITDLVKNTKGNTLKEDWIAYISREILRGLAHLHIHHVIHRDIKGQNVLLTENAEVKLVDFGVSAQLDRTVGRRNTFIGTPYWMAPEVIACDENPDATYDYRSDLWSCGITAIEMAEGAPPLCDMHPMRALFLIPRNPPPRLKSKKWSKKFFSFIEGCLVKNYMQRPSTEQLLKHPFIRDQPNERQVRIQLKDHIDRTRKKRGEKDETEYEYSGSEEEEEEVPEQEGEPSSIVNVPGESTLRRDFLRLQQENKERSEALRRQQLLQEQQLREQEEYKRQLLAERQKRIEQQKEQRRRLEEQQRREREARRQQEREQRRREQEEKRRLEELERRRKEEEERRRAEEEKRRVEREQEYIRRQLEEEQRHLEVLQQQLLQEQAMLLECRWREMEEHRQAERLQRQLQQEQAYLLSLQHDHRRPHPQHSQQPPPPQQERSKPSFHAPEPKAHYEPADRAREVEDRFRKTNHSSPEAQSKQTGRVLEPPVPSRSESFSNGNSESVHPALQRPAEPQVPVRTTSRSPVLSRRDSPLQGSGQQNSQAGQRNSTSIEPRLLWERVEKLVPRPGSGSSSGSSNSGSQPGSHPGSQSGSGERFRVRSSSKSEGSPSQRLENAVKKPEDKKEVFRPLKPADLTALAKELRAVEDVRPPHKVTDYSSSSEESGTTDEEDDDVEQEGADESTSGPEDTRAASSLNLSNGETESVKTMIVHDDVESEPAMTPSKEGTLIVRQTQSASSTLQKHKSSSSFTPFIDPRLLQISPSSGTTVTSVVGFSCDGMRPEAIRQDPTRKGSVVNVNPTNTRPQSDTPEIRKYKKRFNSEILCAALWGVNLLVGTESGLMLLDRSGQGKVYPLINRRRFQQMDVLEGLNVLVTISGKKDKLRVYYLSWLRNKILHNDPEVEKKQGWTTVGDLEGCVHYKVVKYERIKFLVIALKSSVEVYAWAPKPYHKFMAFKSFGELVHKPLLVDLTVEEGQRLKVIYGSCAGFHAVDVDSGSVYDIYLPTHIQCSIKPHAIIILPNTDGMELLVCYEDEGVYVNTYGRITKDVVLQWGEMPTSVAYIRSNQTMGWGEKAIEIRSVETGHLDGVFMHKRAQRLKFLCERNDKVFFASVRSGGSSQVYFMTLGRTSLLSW
Sequence of Macrophage-stimulating protein receptor (Q04912 25-304 limits assumed): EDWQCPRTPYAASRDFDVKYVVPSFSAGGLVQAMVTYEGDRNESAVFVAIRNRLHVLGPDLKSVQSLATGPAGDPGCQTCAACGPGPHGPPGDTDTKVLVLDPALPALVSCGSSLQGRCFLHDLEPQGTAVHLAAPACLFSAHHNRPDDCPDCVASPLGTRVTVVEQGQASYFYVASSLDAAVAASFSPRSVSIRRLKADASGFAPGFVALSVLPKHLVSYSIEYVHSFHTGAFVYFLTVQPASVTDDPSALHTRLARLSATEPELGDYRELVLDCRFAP
Sequence of Macrophage-stimulating protein receptor (Q04912 310-1400 limits assumed): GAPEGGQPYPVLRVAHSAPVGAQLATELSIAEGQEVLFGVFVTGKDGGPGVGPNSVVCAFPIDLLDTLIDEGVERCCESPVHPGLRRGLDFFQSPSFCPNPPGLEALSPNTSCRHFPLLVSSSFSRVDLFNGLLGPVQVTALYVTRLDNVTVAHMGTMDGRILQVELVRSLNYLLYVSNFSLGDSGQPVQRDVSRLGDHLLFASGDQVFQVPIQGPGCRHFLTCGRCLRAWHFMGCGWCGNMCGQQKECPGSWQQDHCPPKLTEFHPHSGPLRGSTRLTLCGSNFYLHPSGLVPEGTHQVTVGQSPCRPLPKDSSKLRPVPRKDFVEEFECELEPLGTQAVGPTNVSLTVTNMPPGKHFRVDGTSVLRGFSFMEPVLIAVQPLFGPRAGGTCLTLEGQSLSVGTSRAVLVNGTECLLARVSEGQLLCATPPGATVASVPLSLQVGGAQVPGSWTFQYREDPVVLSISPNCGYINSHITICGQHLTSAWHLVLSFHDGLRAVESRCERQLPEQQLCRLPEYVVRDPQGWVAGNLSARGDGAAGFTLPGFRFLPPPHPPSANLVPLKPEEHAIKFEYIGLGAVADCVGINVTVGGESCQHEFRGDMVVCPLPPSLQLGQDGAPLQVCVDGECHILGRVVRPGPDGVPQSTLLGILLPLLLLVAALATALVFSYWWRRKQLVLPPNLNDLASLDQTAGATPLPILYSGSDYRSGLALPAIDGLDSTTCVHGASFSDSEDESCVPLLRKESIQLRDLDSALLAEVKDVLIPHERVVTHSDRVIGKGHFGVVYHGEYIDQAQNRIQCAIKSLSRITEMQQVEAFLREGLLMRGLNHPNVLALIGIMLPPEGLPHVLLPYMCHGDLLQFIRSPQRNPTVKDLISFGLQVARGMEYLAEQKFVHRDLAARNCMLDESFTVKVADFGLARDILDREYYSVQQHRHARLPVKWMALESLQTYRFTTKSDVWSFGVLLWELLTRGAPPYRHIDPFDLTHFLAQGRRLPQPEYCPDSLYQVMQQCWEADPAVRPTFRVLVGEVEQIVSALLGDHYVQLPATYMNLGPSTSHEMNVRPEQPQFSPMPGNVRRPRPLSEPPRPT
Sequence of Fibroblast growth factor receptor 3 (Homo sapiens), P22607 [G697C] (P22607 whole entry G697C): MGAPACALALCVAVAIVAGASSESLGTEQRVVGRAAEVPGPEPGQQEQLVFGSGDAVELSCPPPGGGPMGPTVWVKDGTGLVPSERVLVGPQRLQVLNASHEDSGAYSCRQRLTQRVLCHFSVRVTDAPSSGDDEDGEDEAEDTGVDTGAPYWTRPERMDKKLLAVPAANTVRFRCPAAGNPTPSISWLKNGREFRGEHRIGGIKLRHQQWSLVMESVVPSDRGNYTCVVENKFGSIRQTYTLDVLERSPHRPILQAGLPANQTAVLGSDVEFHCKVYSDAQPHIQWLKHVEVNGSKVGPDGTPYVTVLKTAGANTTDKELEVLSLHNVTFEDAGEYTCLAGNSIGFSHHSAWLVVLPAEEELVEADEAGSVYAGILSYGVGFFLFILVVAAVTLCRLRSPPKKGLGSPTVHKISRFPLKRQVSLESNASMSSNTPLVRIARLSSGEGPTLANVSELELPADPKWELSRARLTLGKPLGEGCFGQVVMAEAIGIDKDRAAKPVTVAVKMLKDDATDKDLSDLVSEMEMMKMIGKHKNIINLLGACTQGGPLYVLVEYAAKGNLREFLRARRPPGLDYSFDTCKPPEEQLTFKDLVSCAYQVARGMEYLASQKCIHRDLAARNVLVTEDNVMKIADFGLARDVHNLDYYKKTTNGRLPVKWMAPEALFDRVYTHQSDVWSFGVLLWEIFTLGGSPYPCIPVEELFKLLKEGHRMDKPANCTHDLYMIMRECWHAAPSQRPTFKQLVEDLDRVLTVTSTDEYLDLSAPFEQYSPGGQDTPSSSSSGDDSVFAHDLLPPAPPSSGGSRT
Sequence of Cyclin-dependent kinase 8 (P49336 whole entry): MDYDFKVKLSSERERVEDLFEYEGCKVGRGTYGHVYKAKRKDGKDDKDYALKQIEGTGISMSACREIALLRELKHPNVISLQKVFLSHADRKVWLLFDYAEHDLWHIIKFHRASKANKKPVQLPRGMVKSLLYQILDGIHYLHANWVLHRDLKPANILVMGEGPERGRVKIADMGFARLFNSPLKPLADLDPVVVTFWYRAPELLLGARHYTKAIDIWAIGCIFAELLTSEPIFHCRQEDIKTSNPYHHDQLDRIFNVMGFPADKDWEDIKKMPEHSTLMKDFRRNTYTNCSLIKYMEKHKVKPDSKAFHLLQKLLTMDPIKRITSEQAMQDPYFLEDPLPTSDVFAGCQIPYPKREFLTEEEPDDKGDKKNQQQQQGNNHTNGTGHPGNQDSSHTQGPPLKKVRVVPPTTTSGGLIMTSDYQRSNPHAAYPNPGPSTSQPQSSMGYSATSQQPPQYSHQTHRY
Sequence of Fibroblast growth factor receptor 3 (Homo sapiens), P22607 [K650M] (P22607 whole entry K650M): as the sequence (P22607 whole entry G697C) above, with K650M, C697G counted along it

As to `Cn1cc(-n2cnc3c(NCc4nc5cc(Cl)c(Cl)cc5[nH]4)nc(N4CCOCC4)nc32)cn1`, the figures for the % of inhibition in experiment [1] and in experiment [2] were -105% and -215%, respectively.

With `COCC(=O)NC/C=C/c1ccc2ncnc(Nc3ccc(Oc4ccc(C)nc4)c(C)c3)c2c1` [CP-724714], the % of control in experiment [3] is 100%.

As to `CNC(=O)Nc1ccc(-c2nc(N3CC4CCC(C3)O4)c3cnn(C4CCC5(CC4)OCCO5)c3n2)cc1`, the % of control in experiment [4] and in experiment [6] was 100% in each case. Also, the % of inhibition in experiment [5] came to 10%.

The compound `Cc1cc([C@@H](C)Nc2ccccc2C(=O)O)c2nc(N3CCOCC3)cc(=O)n2c1` [AZD-6482] gave a % of control in experiment [7] of 74%.

On to `C=CC(=O)Nc1cc(-n2c(=O)ccc3cnc4ccc(-c5ccc(NS(C)(=O)=O)cc5)cc4c32)ccc1C`, for which, in experiment [8], the % of control is 100%.

Take `Cc1ccc(-c2ccc3c(ccc4sc5c(c43)NC[C@@H](C)NC5=O)n2)cn1`: the % of inhibition in [9] was 4%.

In the case of `COc1cc(N(C)c2ccnc3ccc(C(F)(F)F)cc23)cc(OC)c1OC`, the % binding at Activated CDC42 kinase 1 is 89%.
